Assay results: patent US20240336594A1, “SIX-MEMBERED ARYL OR HETEROARYL AMIDES, AND COMPOSITION AND USE THEREOF” (BETTA PHARMACEUTICALS CO., LTD, priority 2021, published 2024)
pIC50: −log10 of the molar value.

These compounds were tested against T1, MALT1 (Homo sapiens, UniProt Q9UDY8) (assay: MALT1 protease inhibition assay (AMC-labeled peptide, fluorescence 360/460)). Conditions: substrate Ac-LRSR-AMC, 15 min preincubation, 90 min at 25° C.
T1 sequence (Q9UDY8 1-824): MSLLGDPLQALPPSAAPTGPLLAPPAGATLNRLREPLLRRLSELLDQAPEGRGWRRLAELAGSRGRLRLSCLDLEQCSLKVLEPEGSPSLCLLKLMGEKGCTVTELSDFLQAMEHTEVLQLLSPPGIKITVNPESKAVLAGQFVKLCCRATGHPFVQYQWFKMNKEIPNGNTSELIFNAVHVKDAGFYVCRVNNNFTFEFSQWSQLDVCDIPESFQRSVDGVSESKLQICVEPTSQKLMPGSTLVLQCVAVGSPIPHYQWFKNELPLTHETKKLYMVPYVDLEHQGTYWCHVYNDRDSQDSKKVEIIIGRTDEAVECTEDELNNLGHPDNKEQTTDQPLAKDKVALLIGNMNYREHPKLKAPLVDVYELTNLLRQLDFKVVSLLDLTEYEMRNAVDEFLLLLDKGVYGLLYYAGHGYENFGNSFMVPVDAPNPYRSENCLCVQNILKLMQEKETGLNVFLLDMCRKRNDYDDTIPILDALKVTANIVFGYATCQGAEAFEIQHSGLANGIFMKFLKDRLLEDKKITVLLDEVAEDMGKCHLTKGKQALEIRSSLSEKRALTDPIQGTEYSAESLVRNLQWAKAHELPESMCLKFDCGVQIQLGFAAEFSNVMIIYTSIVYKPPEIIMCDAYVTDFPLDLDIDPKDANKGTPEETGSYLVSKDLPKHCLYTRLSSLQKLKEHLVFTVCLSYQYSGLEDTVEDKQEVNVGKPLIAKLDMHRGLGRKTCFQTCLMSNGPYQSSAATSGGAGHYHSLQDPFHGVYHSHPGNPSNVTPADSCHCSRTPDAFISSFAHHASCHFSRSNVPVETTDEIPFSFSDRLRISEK
Format: biochemical
Procedure: Test compounds of the present invention (in 100% DMSO) were spotted into a 384-well dilution plate and serially diluted to the required concentrations with DMSO. Then, 0.2 μL of the test compounds were transferred into a new 384-well reaction plate by Echo following centrifugation. The MALT enzyme and its substrate, AMC-labeled peptide, were prepared in 1× protease buffer to yield 2× enzyme solution and 2× peptide solution. Subsequently, 10 μL of 2× enzyme solution was added into the 384-well reaction plate, incubating with the test compounds for 15 minutes at 25° C. After that, 10 μL of 2× peptide solution was added into the plate, continuing to incubate for 90 minutes at 25° C. The plate was then placed on an Envision multifunctional microplate reader to collect raw data, which would be converted into inhibition rate:
Inhibition rate %=(max−sample)/(max−min)*100%. • “max” values were measured using the reaction with enzyme but no compound treated, while “min” values were generated from control wells containing assay buffer without enzyme.
Curve fitting was done with Graphpad Prism software to determine the IC50 values. The specific experimental operations are as follows:
58.82 g Na Citrate·2H2O powder was added into 140 mL ddH2O and mixed in a 37° C. water bath. Once there were no visible particles, the remaining solutions were added successively with continuous stirring for 10 minutes. The final volume was adjusted to 200 mL. The buffer was stored at room temperature. DTT was added before use.
• 1) All test compounds were diluted from 10 mM stock solution into 1 mM in a 384 well dilution plate (labcyte, PP-0200); • 2) Ten various concentrations of the diluted compound solution above were obtained by serial dilution at an equal ratio of 1:3; • 3) 0.2 μL DMSO was transferred to two empty wells of the 384 reaction plate as blank controls without compound and enzyme respectively; • 4) 0.2 μL of the test compound at different concentrations was also transferred into the 384 reaction plate by Echo, with two duplicate wells for each concentration, then the plate was centrifuged at 1000 rpm for 1 min.
• 1) The MALT1 protease and AMC-labeled peptide was prepared in 1× protease buffer to obtain 2× enzyme solution and 2× peptide solution. 10 μL of 2× enzyme solution was added into the 384-well reaction plate. The plate was centrifuged at 1000 rpm for 1 min and incubated for 15 min at 25° C. • 2) 10 μL of 2× peptide solution was then transferred to the 384 reaction plate, and the plate was centrifuged at 1000 rpm for 1 min and incubate for 90 min at 25° C.

Row | SMILES | pIC50
1 | C#Cc1cnccc1-c1cc(Cl)c(C(=O)Nc2cnc(C(=O)NCCOC(F)(F)F)c(Cl)c2)cc1F [Example A431, 3-chloro-5-(2-chloro-4-(3-ethynylpyridin-4-yl)-5-fluorobenzamido)-N-(2-(trifluoromethoxy)ethyl) picolinamide] | 7.00 to 8.00
2 | CN(C)CCNC(=O)c1ncc(NC(=O)c2cc(F)c(-c3ccc(F)cc3N)cc2Cl)cc1Cl [Example A453, 5-(2′-amino-5-chloro-2,4′-difluoro-[1,1′-biphenyl]-4-carboxamido)-3-chloro-N-(2-(dimethylamino)ethyl) picolinamide] | 6.30 to 7.00
3 | Nc1cc(F)ccc1-c1cc(Cl)c(C(=O)Nc2cnc(C(=O)NCC3(C(F)(F)F)CC3)c(Cl)c2)cc1F [Example A468, 5-(2′-amino-5-chloro-2,4′-difluoro-[1,1′-biphenyl]-4-carboxamido)-3-chloro-N-((1-(trifluoromethyl)cyclopropyl)methyl) picolinamide] | 6.30 to 7.00
4 | COCCNC(=O)c1ncc(NC(=O)c2cc(F)c(-c3ccc(F)cc3N)cc2Cl)cc1Cl [Example A449, 5-(2′-amino-5-chloro-2,4′-difluoro-[1,1′-biphenyl]-4-carboxamido)-3-chloro-N-(2-methoxyethyl)picolinamide] | 7.00 to 8.00
5 | Nc1cc(F)ccc1-c1cc(Cl)c(C(=O)Nc2cnc(C(=O)NCc3nnco3)c(Cl)c2)cc1F [Example A452, N-((1,3,4-oxadiazol-2-yl)methyl)-5-(2′-amino-5-chloro-2,4′-difluoro-[1,1′-biphenyl]-4-carboxamido)-3-chloropicolinamide] | 6.30 to 7.00
6 | Cc1cc(F)cc(N)c1-c1cc(Cl)c(C(=O)Nc2cnc(C(=O)NCC#N)c(Cl)c2)cc1F [Example A442, 5-(2′-amino-5-chloro-2,4′-difluoro-6′-methyl-[1,1′-biphenyl]-4-carboxamido)-3-chloro-N-(cyanomethyl)picolinamide] | 7.00 to 8.00
7 | C#Cc1cnccc1-c1cc(Cl)c(C(=O)Nc2cnc(C(=O)NCCc3ccccc3)c(Cl)c2)cc1F [Example A432, 3-chloro-5-(2-chloro-4-(3-ethynylpyridin-4-yl)-5-fluorobenzamido)-N-phenethylpicolinamide] | 7.00 to 8.00
8 | C#Cc1cc(F)ccc1-c1cc(C)c(C(=O)Nc2cnc(-n3nccn3)c(Cl)c2)cc1-c1ccccc1 [Example A422, N-(5-chloro-6-(2H-1,2,3-triazol-2-yl)pyridin-3-yl)-2-ethynyl-4-fluoro-5′-methyl-[1,1′:2′,1″-terphenyl]-4′-carboxamide] | < 6.30
9 | C#Cc1cnccc1-c1cc(Cl)c(C(=O)Nc2cnc(C(=O)NCC(C)(C)C)c(Cl)c2)cc1F [Example A434, 3-chloro-5-(2-chloro-4-(3-ethynylpyridin-4-yl)-5-fluorobenzamido)-N-neopentylpicolinamide] | 7.00 to 8.00
10 | CS(=O)(=O)CCNC(=O)c1ncc(NC(=O)c2cc(F)c(-c3ccc(F)cc3N)cc2Cl)cc1Cl [Example A469, 5-(2′-amino-5-chloro-2,4′-difluoro-[1,1′-biphenyl]-4-carboxamido)-3-chloro-N-(2-(methylsulfonyl)ethyl) picolinamide] | 7.00 to 8.00
11 | CCSCCNC(=O)c1ncc(NC(=O)c2cc(F)c(-c3ccc(F)cc3N)cc2Cl)cc1Cl [Example A464, 5-(2′-amino-5-chloro-2,4′-difluoro-[1,1′-biphenyl]-4-carboxamido)-3-chloro-N-(2-(ethylthio)ethyl) picolinamide] | 7.00 to 8.00
12 | O=C(Nc1cnc(-n2nccn2)c(Cl)c1)c1cc(F)c(-c2ccncc2C2CC2)cc1Cl [Example A445, 2-chloro-N-(5-chloro-6-(2H-1,2,3-triazol-2-yl)pyridin-3-yl)-4-(3-cyclopropylpyridin-4-yl)-5-fluorobenzamide] | 7.00 to 8.00
13 | C#Cc1cc(C(=O)Nc2cnc(-n3nccn3)c(Cl)c2)c(C)cc1-c1ccc(F)nc1N [Example A416, 4-(2-amino-6-fluoropyridin-3-yl)-N-(5-chloro-6-(2H-1,2,3-triazol-2-yl)pyridin-3-yl)-5-ethynyl-2-methylbenzamide] | 6.30 to 7.00
14 | C#Cc1cncc(N)c1-c1cc(Cl)c(C(=O)Nc2cnc(C(=O)NCC(C)(C)C)c(Cl)c2)cc1F [Example A478, 5-(4-(3-amino-5-ethynylpyridin-4-yl)-2-chloro-5-fluorobenzamido)-3-chloro-N-neopentylpicolinamide] | ≥ 8.00
15 | Nc1cc(F)ccc1-c1cc(Cl)c(C(=O)Nc2cnc(C(=O)NCC3CCC3)c(Cl)c2)cc1F [Example A454, 5-(2′-amino-5-chloro-2,4′-difluoro-[1,1′-biphenyl]-4-carboxamido)-3-chloro-N-(cyclobutylmethyl) picolinamide] | 6.30 to 7.00

Results, then the compound that gave them:

Row | pIC50 | SMILES
16 | ≥ 8.00 | C#Cc1cc(F)cnc1-c1cc(Cl)c(C(=O)Nc2ccnc(C(F)(F)F)c2)cc1F [Example A324, 2-chloro-4-(3-ethyny1-5-fluoropyridin-2-y1)-5-fluoro-N-(2-(trifluoromethyl)pyridin-4-yl)benzamide]
17 | ≥ 8.00 | C#Cc1cncc(N)c1-c1cc(Cl)c(C(=O)Nc2ccnc(C(F)(F)F)c2)cc1F [Example A518, 4-(3-amino-5-ethynylpyridin-4-yl)-2-chloro-5-fluoro-N-(2-(trifluoromethyl)pyridin-4-yl)benzamide]
18 | ≥ 8.00 | C=Cc1cnccc1-c1cc(Cl)c(C(=O)Nc2cnc(-n3nccn3)c(C(F)(F)F)c2)cc1F [Example A346, N-(6-(2H-1,2,3-triazol-2-yl)-5-(trifluoromethyl)pyridin-3-yl)-2-chloro-5-fluoro-4-(3-vinylpyridin-4-y1)benzamide]
19 | ≥ 8.00 | Nc1c(Cl)ncc(Br)c1-c1cc(Cl)c(C(=O)Nc2cnc(-n3nccn3)c(C(F)(F)F)c2)cc1F [Example A558]
20 | ≥ 8.00 | CCNC(=O)c1ncc(NC(=O)c2cc(F)c(-c3ccc(F)cc3N)cc2Cl)cc1Cl [Example A444, 5-(2′-amino-5-chloro-2,4′-difluoro-[1,1′-biphenyl]-4-carboxamido)-3-chloro-N-ethylpicolinamide]
21 | ≥ 8.00 | C#Cc1cc(F)cnc1-c1cc(Cl)c(C(=O)Nc2cnc(-n3nccn3)c(Cl)c2)cc1F [Example A335, 2-chloro-N-(5-chloro-6-(2H-1,2,3-triazol-2-yl)pyridin-3-y1)-4-(3-ethyny1-5-fluoropyridin-2-y1)-5-fluorobenzamide]
22 | ≥ 8.00 | C#Cc1cnc(C)c(N)c1-c1cc(Cl)c(C(=O)Nc2cnc(-n3nccn3)c(C(F)(F)F)c2)cc1F [Example A551, N-(6-(2H-1,2,3-triazol-2-yl)-5-(trifluoromethyl)pyridin-3-yl)-4-(3-amino-5-ethynyl-2-methylpyridin-4-yl)-2-chloro-5-fluorobenzamide]
23 | ≥ 8.00 | Nc1cnc(F)c(Br)c1-c1cc(Cl)c(C(=O)Nc2cnc(-n3nccn3)c(C(F)(F)F)c2)cc1F [Example A521, N-(6-(2H-1,2,3-triazol-2-yl)-5-(trifluoromethyl)pyridin-3-yl)-4-(5-amino-3-bromo-2-fluoropyridin-4-yl)-2-chloro-5-fluorobenzamide]
24 | ≥ 8.00 | C#Cc1cncc(N)c1-c1cc(Cl)c(C(=O)Nc2cnc(C(=O)NCCF)c(Cl)c2)cc1F [Example A472, 5-(4-(3-amino-5-ethynylpyridin-4-yl)-2-chloro-5-fluorobenzamido)-3-chloro-N-(2-fluoroethyl)picolinamide]
